Consider two compounds from patent publication US10544415B2, “Methods for producing enteroendocrine cells that make and secrete insulin” (The Trustees Of Columbia University In The City Of New York, priority 2010, dated 2020).

Assay [1] concerns the target KATP channel (Mus musculus, UniProt B2RUS7). Conditions: NKO gut segments, 1 hr; 10 nM glibenclamide or 0.5 mM diazoxide.
Description: Adult intestine was stained in medium containing 0.12 mM Dithizone (DTZ) (10) and selected 5-inches-long DTZ+ fragments from NKO mice or anatomically matched control mice. The intestines were cut open and incubated in glucose-free DMEM supplemented with 10% FBS and 20 mM glucose for 30 min. At the end of the incubation, insulin and C peptide 2 content was measured in the medium by ELISA (Millipore). Collagenase-purified pancreatic islets from 14-week-old WT mice served as controls (5).
To determine whether Ggut Ins^+ cells are functionally competent to secrete insulin, we performed ex vivo assays of insulin secretion in response to glucose and KATP channel modulators, using DTZ staining to select gut segments enriched in Ins^+ cells from NKO mice and anatomically matched segments from control mice.
Adult intestine were strained in medium containing 0.12 mM Dithizone (DTZ) (Tuttle et al Nat Med, 2001) and selected 5-inches-long DTZ+ fragments from NKO mice or anatomically matched fragments from control WT mice. […] At the end of the incubation, we measured insulin and C-peptide 2 content in the medium by ELISA (Millipore). Collagenase-purified pancreatic islets from 14-week-old WT mice served as controls (Kitamura et al., MCB 2009). Experiments were carried out using adult intestines (n=4).
A short description of assay [2]: Insulin bioassay: acid-ethanol tissue extracts injected into newborn mice, blood glucose. It is filed as in vivo, mouse. The method, then:
Insulin bioassay. Acid-ethanol extracts were prepared from neonatal (P3) gut, liver, and pancreas (35). Tissue extract or recombinant human insulin (Humulin R, Eli Lilly) (10 U/ml in acid-ethanol) were mixed with either insulin neutralizing antibody (Thermo Scientific) or isotype-matched mouse IgG1 (Ebiosciences) for subcutaneous injections in 50 microliters volume. Glucose was measured immediately prior to and 5 minutes after injections.
To examine whether intestinal insulin secreted by Gut Ins+ cells is bioactive, acid-ethanol extracts from NKO gut were prepared, extracts were also prepared from gut, pancreas and liver of WT mice, and injected into newborn mice. Extracts from newborn NKO intestine lowered blood glucose by about 20%, similar to pancreatic extracts from age-matched control mice or recombinant human insulin (FIG. 3C). In contrast, extracts from control intestines or liver had no effect. The ability of NKO gut extracts (reflecting the presence of Gut Ins+ cells) to lower blood glucose was preempted by the addition of an insulin-neutralizing antibody, as was pancreatic extracts from control mice and recombinant insulin.

Sequence of KATP channel (B2RUS7 1-1588): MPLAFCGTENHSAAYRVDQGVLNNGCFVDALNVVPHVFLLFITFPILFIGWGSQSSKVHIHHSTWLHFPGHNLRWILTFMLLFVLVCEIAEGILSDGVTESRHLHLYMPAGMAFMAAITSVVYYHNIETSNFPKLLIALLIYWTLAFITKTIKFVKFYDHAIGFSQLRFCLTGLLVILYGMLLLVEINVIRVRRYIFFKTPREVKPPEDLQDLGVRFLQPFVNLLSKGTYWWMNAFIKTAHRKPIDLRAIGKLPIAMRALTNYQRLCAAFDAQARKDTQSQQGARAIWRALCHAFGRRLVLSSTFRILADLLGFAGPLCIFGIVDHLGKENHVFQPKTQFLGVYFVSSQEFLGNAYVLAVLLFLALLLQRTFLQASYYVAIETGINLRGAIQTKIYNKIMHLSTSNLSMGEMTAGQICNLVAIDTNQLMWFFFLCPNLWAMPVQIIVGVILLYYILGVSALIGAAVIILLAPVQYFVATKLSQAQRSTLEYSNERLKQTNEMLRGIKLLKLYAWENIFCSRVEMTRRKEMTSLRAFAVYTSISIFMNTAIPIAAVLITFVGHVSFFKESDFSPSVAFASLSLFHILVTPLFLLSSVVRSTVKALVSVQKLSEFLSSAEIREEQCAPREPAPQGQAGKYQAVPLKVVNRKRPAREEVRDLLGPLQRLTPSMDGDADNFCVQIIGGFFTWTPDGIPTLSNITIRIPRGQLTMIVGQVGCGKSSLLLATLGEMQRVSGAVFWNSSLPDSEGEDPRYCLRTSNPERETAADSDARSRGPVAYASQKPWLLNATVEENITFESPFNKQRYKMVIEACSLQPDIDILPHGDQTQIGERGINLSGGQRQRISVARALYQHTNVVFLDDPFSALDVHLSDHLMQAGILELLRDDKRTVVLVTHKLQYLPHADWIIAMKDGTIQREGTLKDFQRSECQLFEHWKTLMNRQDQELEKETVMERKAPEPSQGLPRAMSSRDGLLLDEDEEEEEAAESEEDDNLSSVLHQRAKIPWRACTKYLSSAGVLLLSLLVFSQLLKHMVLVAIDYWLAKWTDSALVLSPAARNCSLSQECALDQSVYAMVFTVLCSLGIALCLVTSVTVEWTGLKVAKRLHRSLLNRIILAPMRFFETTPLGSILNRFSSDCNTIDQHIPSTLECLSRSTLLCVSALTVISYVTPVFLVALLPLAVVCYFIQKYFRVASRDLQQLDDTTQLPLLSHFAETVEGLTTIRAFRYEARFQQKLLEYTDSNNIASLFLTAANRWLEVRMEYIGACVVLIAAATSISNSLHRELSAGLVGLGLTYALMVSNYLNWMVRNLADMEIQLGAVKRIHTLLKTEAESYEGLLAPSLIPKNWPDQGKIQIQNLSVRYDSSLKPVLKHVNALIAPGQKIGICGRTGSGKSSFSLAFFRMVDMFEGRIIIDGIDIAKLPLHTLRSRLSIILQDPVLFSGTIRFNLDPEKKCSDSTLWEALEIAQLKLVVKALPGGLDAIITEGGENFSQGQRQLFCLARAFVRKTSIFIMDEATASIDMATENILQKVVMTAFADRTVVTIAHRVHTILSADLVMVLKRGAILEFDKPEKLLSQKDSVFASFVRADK
Sequence of KATP channel (Q61743 whole entry partner): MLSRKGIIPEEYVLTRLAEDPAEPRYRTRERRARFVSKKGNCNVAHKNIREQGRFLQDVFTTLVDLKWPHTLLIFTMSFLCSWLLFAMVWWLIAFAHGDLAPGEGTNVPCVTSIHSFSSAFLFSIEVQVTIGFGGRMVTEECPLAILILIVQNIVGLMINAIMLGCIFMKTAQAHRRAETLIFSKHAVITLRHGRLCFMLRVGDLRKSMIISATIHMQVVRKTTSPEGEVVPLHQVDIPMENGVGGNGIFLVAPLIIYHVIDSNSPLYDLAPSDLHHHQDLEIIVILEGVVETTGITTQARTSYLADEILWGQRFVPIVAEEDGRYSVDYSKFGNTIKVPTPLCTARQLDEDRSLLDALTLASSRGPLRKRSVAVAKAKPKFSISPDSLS

For the compound `CC1=NS(=O)(=O)c2cc(Cl)ccc2N1` [diazoxide], the “effect on glucose-induced insulin release from NKO gut” value in assay [1] is listed as “blunted”.

For the compound “recombinant human insulin: recombinant human insulin (Humulin R, Eli Lilly), 10 U/ml in acid-ethanol”, the “lowering of blood glucose (in words)” value in assay [2] (injected into newborn mice, compared with NKO intestine extract) is on record as “similar”. For the same compound, the “ability to lower blood glucose after addition of insulin-neutralizing antibody” value in assay [2] (sample mixed with insulin-neutralizing antibody) is on record as “preempted”.
